Test results as given in patent US10329284B2, “Ester prodrugs of gamma-lactams and their use” (ALLERGAN, INC., priority 2014, dated 2019).

Assay: Aqueous stability upon storage in aqueous solution, evaluated by HPLC
Assay type: physicochemical
Experimental: The compound of Formula (IIIa):
[drawing 31] was selected as an exemplary compound for evaluation of aqueous stability. In particular, the aqueous stability of the compound of Formula (Ma) upon storage in aqueous solution at several temperatures for several weeks was evaluated by HPLC using the following conditions: Column: BioWidePore C18 (SUPELCO), 4.6 mm×25 cm, 5 μm Mobile Phase A: 0.1% (V/V) trifluoroacetic acid (TFA) in di-water, 0.8 micron filtered Mobile Phase B: 100% acetonitrile, 0.8 micron filtered Column temp: Ambient Injection volume: 30 μL UV Detection: 214 nm Flow: 1.0 mL/min Run time: 25 minutes Sample diluent: 50% acetonitrile in di-water Gradient condition: See Table 1

With `O=C(OC[C@@H](O)CO)c1ccc(CCC[C@@H]2[C@@H](CCc3cc(Cl)cc(Cl)c3)[C@H](O)C[C@H]2Cl)s1` [Standard] the “% Recovery vs. T0” value (storage 25° C., T0) was 100.0%, the “% Recovery vs. T0” value (storage 25° C., Week-1) was 100.1% and the “% Recovery vs. T0” value (storage 25° C., Week-2) was 101.0%. The “% Recovery vs. T0” value (storage 25° C., Week-4) was 101.6%, the “% Recovery vs. T0” value (storage 40° C., T0) was 100.0% and the “% Recovery vs. T0” value (storage 40° C., Week-1) was 100.1%. The “% Recovery vs. T0” value (storage 40° C., Week-2) was 100.1%, the “% Recovery vs. T0” value (storage 40° C., Week-4) was 98.6% and the “% Recovery vs. T0” value (storage 60° C., T0) was 100.0%. For the same compound, the “% Recovery vs. T0” value (storage 60° C., Week-1) was 99.3%, the “% Recovery vs. T0” value (storage 60° C., Week-2) was 97.5% and the “% Recovery vs. T0” value (storage 60° C., Week-4) was 95.6%.

With `CCCCC[C@H](O)c1ccc(N2C(=O)CC[C@@H]2CCCc2ccc(C(=O)OC[C@@H](O)CO)s2)cc1` [Formula (IIIa), (S)-2,3-dihydroxypropyl 5-(3-((S)-1-(4-((S)-1-hydroxyhexyl)phenyl)-5-oxopyrrolidin-2-yl)propyl)thiophene-2-carboxylate] the “% Recovery vs. T0” value (storage 25° C., T0) was 100.0%, the “% Recovery vs. T0” value (storage 25° C., Week-1) was 100.8% and the “% Recovery vs. T0” value (storage 25° C., Week-2) was 100.4%. The “% Recovery vs. T0” value (storage 25° C., Week-4) was 102.6%, the “% Recovery vs. T0” value (storage 40° C., T0) was 100.0% and the “% Recovery vs. T0” value (storage 40° C., Week-1) was 100.6%. For the same compound, the “% Recovery vs. T0” value (storage 40° C., Week-2) was 99.8%, the “% Recovery vs. T0” value (storage 40° C., Week-4) was 101.8% and the “% Recovery vs. T0” value (storage 60° C., T0) was 100.0%. For the same compound, the “% Recovery vs. T0” value (storage 60° C., Week-1) was 99.0%, the “% Recovery vs. T0” value (storage 60° C., Week-2) was 97.4% and the “% Recovery vs. T0” value (storage 60° C., Week-4) was 96.3%.
